“And” between values parts separate entries of the source, which are not always exact repeats. Equal values may be shown once. Marks after values point to notes of the source that are not given here.
Experiments:
Format in all cases: in vivo, rat
[1] = test system: aluminum chloride (AlCl3)-induced Alzheimer-like disease in rats; assay: Reduced glutathione (GSH) level in brain homogenate of AlCl3-induced Alzheimer-like rats
Procedure: (§1) The neuroprotective effects of silymarin (SM) were tested on the hippocampal tissues of aluminum chloride (AlCl3)-induced Alzheimer's-like disease in rats using biochemical, histological, and immune-histochemical examination. For this experiment, 42 mature male albino rats were divided equally into 6 groups each of 7 rats as follows: • Group I: Rats injected with distilled water and served as the control group (non-induced); • Group II: Rats injected with AlCl3; • Group III: Rats injected with AlCl3, then silymarin; • Group IV: Rats injected with AlCl3, then collagen; • Group V: Rats injected with AlCl3 then silymarin nanoparticles; • Group VI: Rats injected with AlCl3 then silymarin+collagen nanoparticles.
(§2) All of the experimental animals were sacrificed, and their brains dissected to take out the cortex section. The homogenates (10%, w/v) were then centrifuged at 10,000 rpm for 15 min and the supernatants were conserved at […] for subsequent biochemical evaluations to determine, oxidative stress markers, catalase activity, superoxide dismutase, glutathione peroxidase, glutathione reductase; and lipid peroxidation.
To determine homogenate reduced glutathione (GSH) level, GSH was allowed to react with 5,5′-dithio-bis-2-nitrobenzoic acid (DTNB) (equation below), known as Ellman's reagent, generating a yellow-colored 2-nitro-5-thiobenzoic acid product. DTNB+2 GSH Glutathione reductase 2-nitro-5-thiobenzoic acid
The reagents used included sulfosalicylic acid, 4%; phosphate buffer, 0.1 M, pH 7.4 and pH 8; DTNB, 10 mM, 19.8 mg in 10 ml phosphate buffer pH 8, and standard GSH, and 1 mg/dl (32.54 μM) in phosphate buffer pH 7.4.
Proteins in 0.1 ml of either homogenate supernatants (samples) were precipitated using 0.1 ml of 4% sulfosalicylic acid. The samples were kept at 4° C. for at least 1 hour and then subjected to centrifugation at 3000 rpm for 10 min at 4° C. The assay mixture contained 0.1 ml supernatant, 2.7 ml phosphate buffer (0.1 M, pH 7.4), and 0.2 ml DTNB in a total volume of 3 ml.
The standard and blank experiment was carried out as above using 0.1 ml of standard GSH and distilled water, respectively instead of samples. The absorbance of the developed yellow color of samples and standard was read against blank at 412 nm.
The tissue contents of GSH were estimated using the following equation; GSH level (μmol/g protein)=[As Ast×Standard concentration×10]/total proteins, • where; • As: Absorbance of the sample (homogenate); • Ast: Absorbance of standard; and • 10: The tissue dilution.
(§3) Male albino rats were pretreated with one dose of the nano-formulation of 200 mg/kg/day for 15 days orally. The animals were then evaluated for neurobehavioral, infarct analysis, biochemical, histopathological studies.

[2] = test system: aluminum chloride (AlCl3)-induced Alzheimer-like disease in rats; assay: Catalase activity in brain homogenate of AlCl3-induced Alzheimer-like rats
Procedure: as §1, §2
Catalase reacts with a known quantity of H2O2. The reaction is stopped after exactly one minute with a catalase inhibitor. In the presence of peroxidase (HRP), remaining H2O2 reacts with 3,5-Dichloro-2-hydroxybenzene sulfonic acid (DHBS) and 4-aminophenazone (AAP) to form a chromophore with a color intensity inversely proportional to the amount of catalase in the original sample.
The reagents included: • buffer (Phosphate buffer, pH 7.0 Detergent)−100 mM/L; • H2O2 (substrate and standard) (Dilute 1000 times)−500 mM/L • Chromogen—Inhibitor— • Enzyme: Peroxidase 4-Aminoantipyrine Preservative->2000/L 2 mM/L.
as §3

[3] = test system: aluminum chloride (AlCl3)-induced Alzheimer-like disease in rats; assay: Nitric oxide (nitrite) level in brain homogenate of AlCl3-induced Alzheimer-like rats
Procedure: as §1, §2
Nitric oxide was rapidly oxidized to nitrite (NO^2−) and/or nitrate (NO^3−) by oxygen. In this method, nitrite was first treated with a diazotizing reagent, e.g., sulfanilamide (SA), in acidic media to form a transient diazonium salt. This intermediate was then allowed to react with a coupling reagent, N-naphthyl-ethylene diamine, to form a stable azo compound. The intense purple color of the product allows nitrite assay with high sensitivity and can be used to measure nitrite concentration as low as […]. The absorbance of this adduct at 540 nm is linearly proportional to the nitrite concentration in the sample.
The reagents included sulphanilamide (10 mM), N-(1-naphthyl) ethylenediamine, (1 mM), and standard sodium nitrite solution (100 μM). To four test tubes, each containing 1 ml sulphanilamide, 100 μl of either homogenate (test), standard solution (standard), or distilled water (blank) were added. The four test tubes were incubated for 5 minutes at room temperature. Then, 100 μl N-(1-naphthyl) ethylene diamine was added to all tubes and allowed to stand for 20 min at room temperature. The absorbance of the test and standard was read at 540 nm against blank.
The homogenate NO level was calculated according to the following equation: NO level (μM/g protein)=[As Ast×Standard concentration×10]/total proteins, where; • As: Absorbance of the sample (homogenate); • Ast: Absorbance of standard; and • 10: The sample dilution factor.
as §3

[4] = test system: aluminum chloride (AlCl3)-induced Alzheimer-like disease in rats; assay: Lipid peroxidation (TBARS) in brain homogenate of AlCl3-induced Alzheimer-like rats
Procedure: as §1, §2
Lipid peroxidation was determined by measuring the thiobarbituric reactive substances (TBARS) in the homogenate where: Thiobarbituric acid+malondialdehyde Colored product+2 H2O Malondialdehyde (MDA), a major secondary product of lipid peroxidation (LPO) reacts with thiobarbituric acid (TBA), producing pink color adducts on heating. This reaction has been widely adopted as a sensitive method for lipid peroxidation that represents a major indicator of oxidative stress.
In four test tubes, homogenate supernatant (test) or water (blank) was added to 1 ml TCA and mixed well, then the solutions were centrifuged at 3000 rpm for 10 min. One milliliter of the supernatant of each of the previous four test tubes was added to 0.5 ml of TBA and heated for 30 min at 90° C. then cooled. The absorbance of samples (As) was read at 532 nm against blank.
The concentration of proteins was estimated. The levels of TBARS were calculated with the following equations:
For tissue homogenate: As: TBARS level (μmol/g protein)=(0.156×total protein×1000)×10, where; • As: absorbance of the sample (homogenate); • 0.156: molar extinction coefficient (μM−1 cm^−1); and • 10: the sample dilution factor.
as §3

[5] = Table 1, single animal samples (code = group G + animal H), brain homogenate supernatant
[6] = Table 2, value ± spread per treatment group, Example 5, nano-formulation 200 mg/kg/day for 15 days orally

Compound	GSH [1, 5]	GSH [1, 6]	Catalase [2, 5]	Catalase [2, 6]	NO [3, 5]	NO [3, 6]	TBARS [4, 5]	TBARS [4, 6]
[Cl][Al]([Cl])[Cl] [AlCl3, aluminum chloride]	12.06 μmol/g protein and 14.51 μmol/g protein	19.03 ± 3.89^bc	54 U/g and 65 U/g	84.33 ± 17.27^bc	61.67 μM/g protein and 65.00 μM/g protein	36.18 ± 0.58^bc	1.54 μmol/g protein and 1.48 μmol/g protein	0.68 ± 0.04^bc
collagen	24.78 μmol/g protein and 11.61 μmol/g protein	14.44 ± 0.58^b	111 U/g and 52 U/g	62.33 ± 1.45^b	37.22 μM/g protein and 36.11 μM/g protein	34.91 ± 0.83^bc	0.74 μmol/g protein and 0.60 μmol/g protein	0.71 ± 0.01^bc

— US11833181B1, “Method of treating or preventing Alzheimer's Disease” (KING FAISAL UNIVERSITY, priority 2023, dated 2023)
